In US9880171B2, “iASPP phosphorylation and metastatic potential” (LUDWIG INSTITUTE FOR CANCER RESEARCH LTD., priority 2012, dated 2018):

B1: iASPP(1-240): purified recombinant N-terminal iASPP fragment, amino acids 1-240 of SEQ ID NO: 2, GST tag (protein, listed as Homo sapiens)
chain: MDSEAFQSARDFLDMNFQSLAMKHMDLKQMELDTAAAKVDELTKQLESLWSDSPAPPGPQAGPPSRPPRYSSSSIPEPFGSRGSPRKAATDGADTPFGRSESAPTLHPYSPLSPKGRPSSPRTPLYLQPDAYGSLDRATSPRPRAFDGAGSSLGRAPSPRPGPGPLRQQGPPTPFDFLGRAGSPRGSPLAEGPQAFFPERGPSPRPPATAYDAPASAFGSSLLGSGGSAFAPPLRAQDDL
modifications: GST tag
B2: iASPP(1-240)S84D/S113D: iASPP phosphor-mimic mutant of the N-terminal fragment 1-240 (protein, listed as Homo sapiens)
chain: MDSEAFQSARDFLDMNFQSLAMKHMDLKQMELDTAAAKVDELTKQLESLWSDSPAPPGPQAGPPSRPPRYSSSSIPEPFGSRGDPRKAATDGADTPFGRSESAPTLHPYSPLDPKGRPSSPRTPLYLQPDAYGSLDRATSPRPRAFDGAGSSLGRAPSPRPGPGPLRQQGPPTPFDFLGRAGSPRGSPLAEGPQAFFPERGPSPRPPATAYDAPASAFGSSLLGSGGSAFAPPLRAQDDL

Key:
Format in all cases: cell-based, human
[1] = system: slow-migrating iASPP in H1299 cells; experiment: induction of slow-migrating iASPP by chemotherapeutic agents in H1299 cells (WB); details: H1299, overnight treatment (oxidative stress inducers 1-3 h; EDTA 4 mM 1 hour), antibody LX49.3
Procedure: FIG. 3. […] H1299 cells were treated overnight with the indicated concentrations of mitosis-arrest drugs nocodazole, colchicine and taxol, DNA damaging drugs, or oxidative stress inducers (1-3 h). Total lysate was prepared in UREA buffer, and iASPP expression patterns were determined using antibody LX49.3. […] Mitotic-arrest drugs were applied to H1299 cells to induce iASPP mobility shift. Floating and adherent cells were collected, and iASPP expression pattern was determined by western blotting (WB). C. […] Left panel, cells in mitosis (floating) and interphase (adherent) were collected by mitotic shake-off, and iASPP expression pattern was determined by WB. Right panel, H1299 cells after Taxol treatment, or mitotic shake-off were immunofluorescence stained using antibody LX49.3. In mitotic shake-off experiment, mitotic shake-off cells were cytospun to slides; the remaining adherent cells after shaking were scraped off and used as interphase control. […] Melanoma cells were treated with nocodazole overnight and iASPP expression patterns from total cell lysate was determined by WB.
FIG. 4. A. Floating and adherent H1299 cells separately collected by mitotic shake-off (FIG. 3C) were stained with propidium iodide (PI), followed by FACS analysis. […] B. H1299 cells were subjected to treatment of 10 μM nocodazole for 24 hours (Nocodazole), on ice for 30 minutes (Cold shock), or 4 mM EDTA for 1 hour (EDTA). Left panel: iASPP expression pattern was analysed by immunoblotting. Right panel: phase contrast images were taken before collection of the cells for WB analysis. Bar=20 μm.
For WB, cells were lysed in buffer containing 8 M urea, 1 M thiourea, 0.5% CHAPS, 50 mM DTT, and 24 mM spermine. A total of 40 μg of protein extract was loaded per lane into SDS-polyacrylamide gels. Gels were transferred onto nitrocellulose membrane (Protran) and the resulting blots incubated first with primary antibody overnight at 4° C. and then with the appropriate secondary horseradish peroxidize-conjugated antibody (Dako). The results were visualized by enhanced chemiluminescent detection (Amersham Biosciences) using X-ray film (Fujifilm). For cell lysate immunoprecipitation, cells were dissolved in NP40 buffer (50 mM Tris-HCl pH 8.0, 150 mM NaCl, 1% NP-40) with protease inhibitor cocktail mix (Roche Diagnostics). Cells were further thoroughly broken by ultrasonication, followed by spinning for 1 hour. Achieved suspension was adjusted to 1-2 mg/ml using NP40 buffer and incubated with 20 μl nickel beads, glutathione beads, or protein A beads (with 2 μg required antibody) for 2 h at room temperature. The beads were washed for four times with NP40 buffer, boiled for 5 min in Laemmli sample buffer, and applied for Western blotting. For pure protein immunoprecipitation, 5-10 μg purified proteins were mixed in NP40 buffer with 1 mg/ml BSA for 2 h at room temperature.
As mitotic cells often detach from the tissue culture dish, floating cells were separated from adherent cells after the treatment of Nocodozole, Taxol and Colchicine.

[2] = system: iASPP modification in H1299 cells; experiment: nocodazole-induced iASPP modification in H1299 cells, G2/M kinase inhibitor panel (immunoblotting); details: 2-10 μM, 10 μM nocodazole overnight
Procedure: FIG. 12. […] FIG. 12A. […] FIG. 12B. […] FIG. 12C.
FIG. 13. FIG. 13A. […] FIG. 13B.
FIG. 20. […] FIG. 20A. […] Bar=20 μm.
For WB, cells were lysed in buffer containing 8 M urea, 1 M thiourea, 0.5% CHAPS, 50 mM DTT, and 24 mM spermine. A total of 40 μg of protein extract was loaded per lane into SDS-polyacrylamide gels. Gels were transferred onto nitrocellulose membrane (Protran) and the resulting blots incubated first with primary antibody overnight at 4° C. and then with the appropriate secondary horseradish peroxidize-conjugated antibody (Dako). The results were visualized by enhanced chemiluminescent detection (Amersham Biosciences) using X-ray film (Fujifilm).

[3] = system: nuclear entry of FITC labeled iASPP(625-828); experiment: in vitro nuclear import assay in digitonin permeabilized H1299 cells; details: for nuclear entry of FITC labeled iASPP(625-828): pre-incubation with 0-1 mg/ml non-labeled protein, 2 hours
Procedure: FIG. 7. S84/S113 phosphorylation of iASPP prevents N- and C-terminal self-interaction and promotes iASPP nuclear localization. A. N- and C-terminal iASPP self-interacts, and iASPP(1-240 of SEQ ID NO: 2)S84D/S113D fails to interact with C-terminal iASPP in vitro. Upper panel: 10 μg/ml purified GST-tagged iASPP (1-240 of SEQ ID NO: 2) or iASPP (249-482 of SEQ ID NO: 2) were incubated with 10 μg/ml purified 6*His-tagged iASPP (625-828 of SEQ ID NO: 2) or ASPP2 (905-1128 of SEQ ID NO: 2) in NP40 buffer for 2 hours. iASPP (1-240 of SEQ ID NO: 2) and iASPP (249-482 of SEQ ID NO: 2) were pulled down by glutathione beads. Bound iASPP (625-828 of SEQ ID NO: 2) and ASPP2 (905-1128 of SEQ ID NO: 2) were determined using anti-His antibodies. Lower panel: 10 μg/ml purified iASPP (1-240 of SEQ ID BO: 2)-GST mutants were incubated with 10 μg/ml mixture of iASPP (625-828 of SEQ ID NO: 2)-His and ASPP2 (905-1128 of SEQ ID NO: 2)-His in NP40 buffer for 2 hours. Interaction was determined as above. […] Cells were suspended in NP40 buffer, and interactions between overexpressed iASPP(1-478 of SEQ ID NO: 2)-V5 and purified iASPP(625-828 of SEQ ID NO: 2)-His were determined by co-immunoprecipitation. […] Cells were suspended in NP40 buffer, and interaction between endogenous iASPP and iASPP (1-240 of SEQ ID NO: 2)-GST was determined by co-immunoprecipitation. […] Upper right panel: H1299 cells were treated with or without nocodazole and iASPP mobility shift were determined in non-denaturing or denaturing WB. […] After 4 washes, the interaction between them was determined by co-immunoprecipitation using anti-GST and anti-V5 antibodies. […] Nuclear iASPP (625-828 of SEQ ID NO: 2)-FITC was determined by direct FITC fluorescence. iASPP(1-240)S84D/S113D and ASPP2(905-1128 of SEQ ID NO: 2) were used as control. […]
Purified proteins were labeled with FITC according to protocol from protein label kit (F-6434, Invitrogen). […] The cellular localization of the substrate was determined by direct fluorescence observation under confocol microscope. […]

Molecule | induction of slow-migrating iASPP isoform [1] | further results
COc1cc2c(c(OC)c1OC)-c1ccc(OC)c(=O)cc1[C@@H](NC(C)=O)CC2 [Colchicine] | induced | 
N.N.[Cl][Pt][Cl] [Cisplatin] | did not result in increased slow-migrating iASPP isoform expression | 
OO [hydrogen peroxide] | did not result in increased slow-migrating iASPP isoform expression | 
CC(=O)O[C@H]1C(=O)[C@@]2(C)[C@H]([C@H](OC(=O)c3ccccc3)[C@]3(O)C[C@H](OC(=O)[C@H](O)[C@@H](NC(=O)c4ccccc4)c4ccccc4)C(C)=C1C3(C)C)[C@]1(OC(C)=O)CO[C@@H]1C[C@@H]2O [Taxol] | induced | 
COc1cccc2c1C(=O)c1c(O)c3c(c(O)c1C2=O)C[C@@](O)(C(=O)CO)C[C@@H]3O[C@H]1C[C@H](N)[C@H](O)[C@H](C)O1 [Doxorubicin] | did not result in increased slow-migrating iASPP isoform expression | 
CN[C@@H]1C[C@H]2O[C@@](C)([C@@H]1OC)n1c3ccccc3c3c4c(c5c6ccccc6n2c5c31)C(=O)NC4 [Staurosporine] | did not result in increased slow-migrating iASPP isoform expression | 
CC[C@H](CO)Nc1nc(NCc2ccccc2)c2ncn(C(C)C)c2n1 [roscovitine] |  | prevention of nocodazole-induced iASPP modification ([2]; panel of 15 G2/M kinase inhibitors): only weakly affected iASPP modification; prevention of nocodazole-induced iASPP modification ([2]; panel of 18 G2/M kinase inhibitors): failed to affect iASPP modification
O=C(O)CN(CCN(CC(=O)O)CC(=O)O)CC(=O)O [EDTA] | failed to affect iASPP mobility | 
B1 |  | nuclear entry of FITC labeled iASPP(625-828) [3]: effectively prevented the nuclear entry; nuclear entry of ASPP2(905-1128) ([3]; pre-incubation with non-labeled protein): no impact on the nuclear entry of ASPP2(905-1128)
B2 |  | nuclear entry of FITC labeled iASPP(625-828) [3]: failed to have any impact
